Experiments:
[1] = system: Citric Acid-Induced Cough in Guinea Pigs; experiment: Citric Acid Induced Cough Model (direct antitussive activity); assay type: in vivo, guinea pig; details: conscious guinea pigs, inhaled citric acid (0.4% for 1 minute) cough challenge; FIG. 4
Procedure: The directed antitussive activity of the compound in question if first assessed, by a 10 to 30 minute pretreatment period by intraperitoneal injection or a 1 hour pretreatment period for oral administration. The animals (guinea pigs) are then subjected to an inhaled citric acid-induced cough challenge. Inhalation of citric acid (CA; 0.4% for 1 minute) induced 11 to 15 coughs during the exposure and 12-minute monitoring period in conscious guinea pigs.

[2] = system: LTD4-induced hypertussive response in the Guinea Pig; experiment: LTD4-Induced Hypertussive Model; assay type: in vivo; details: oral 30 mg/kg b.i.d.; LTD4 inhalation 10 ug/ml for 1 minute; 72 hours after exposure
Procedure: The effects of the compound are then assessed on the hypertussive response that occurs 72 hours post aerosol exposure to antigen or LTD4 exposure. Treatment of the animals occurs with the drug prior and/or after antigen or LTD4 challenge, but not on the day of citric acid challenge. Similarly, inhalation of LTD4 (10 ug/ml for 1 minute) increased cough incidence and airway esoinophiles 72 hours after exposure. Oral treatment with Compound I (30 mg/kg, b.i.d.), blocked the LTD4-induced esoinophilia, and normalized the cough response, as shown in FIG. 5 herein.

[3] = system: Antigen-Induced Hypertussive Activity to Citric Acid in Guinea Pigs; experiment: Antigen-Induced Hypertussive Model; assay type: in vivo, guinea pig; details: sensitized guinea pigs exposed to inhaled ovalbumin
Procedure: The effects of the compound are then assessed on the hypertussive response that occurs 72 hours post aerosol exposure to antigen or LTD4 exposure. Treatment of the animals occurs with the drug prior and/or after antigen or LTD4 challenge, but not on the day of citric acid challenge. Inhalation of citric acid (CA; 0.4% for 1 minute) induced 11 to 15 coughs during the exposure and 12-minute monitoring period in conscious guinea pigs.

Structure (SMILES): COc1nccc(-c2c(-c3ccc(F)cc3)ncn2[C@H]2CC[C@H](O)CC2)n1 [Compound I, trans-1-(4-Hydroxycyclohexyl)-4-(4-fluorophenyl)-5-[(2-methoxy)pyrimidin-4-yl]imidazole]
- direct antitussive effect [1]: no direct antitussive effect
- LTD4-induced eosinophilia [2]: blocked
- cough response [2]: normalized
- airway eosinophilia ([3]; bronchoalveolar lavage): reduce airway eosinophilia
- hypertussive state (citric acid-induced cough incidence) ([3]; citric acid challenge 72 hours post antigen): normalizes the hypertussive state
